US12521425B2, “Method of liver cancer treatment with safranal-based formulations” (priority 2019, dated 2026)

Experiments:
Assay type in all cases: cell-based
HepG2 cells [1] = assay: MTT assay, cell viability; conditions: HepG2, 50-900 μM for 24, 48 and 72 hours; read-out: IC50, inhibition of cellular viability
Protocol: MTT assay. HepG2 cells were seeded at a density of 5000 cells/well in 96-well plates in 100 μL of complete growth medium. Cells were allowed to attach before being treated with different concentrations of safranal (Sigma Aldrich) (50 μM, 100 μM, 500 μM, 700 μM and 900 μM) for 24, 48 and 72 hours. After which, the cells were treated with 3-[4,5-dimethylthiazol-2-yl]-2,5-diphenyltratrazolium bromide (MTT) (Sigma Aldrich) and incubated for 3 hours. The formed formazan crystals were dissolved using DMSO and the absorbance of the resulting product was measured at 570 nm using an Epoch microplate spectrophotometer (Bio-Tek). Cell viability is presented as percentile of the untreated control which was calculated accordingly: Percent of viable cells=(Abs. of treated cells/Abs. of control cells)×100. *p≤0.05, **p≤0.001, ***p≤0.0001.

HepG2 cells [2] = assay: Colony formation assay; conditions: HepG2, 30-100 μM for 24 hours
Protocol: Colony formation. HepG2 cell were seeded at a density of 1000 cells/6-well plate, and left to incubate for 24 hours to allow attachment before being treated with different concentrations of safranal (30, 50, 100 μM) for 24 hours. After which, culture media containing safranal was replaced by fresh growth media without safranal. Culture media was replenished every 3 days, until visible colonies were formed. Colonies were fixed with absolute methanol, then stained with 0.5% crystal violet. Colonies were then imaged and analyzed using ImageJ plugin ColonyArea. Results are represented as the percent of area occupied by colonies. To confirm, an absorption-based method was carried out to validate results obtained from ImageJ. Briefly, stained colonies were treated with 10% acetic acid solution to dissolve the crystal violet stain. After which, 100 μL of each triplicate sample was transferred to a 96-well plate (in triplicates), and absorbance was measured using an Epoch microplate spectrophotometer (BioTek). *p≤0.05, **p≤0.001, ***p≤0.0001

HepG2 cells [3] = assay: Cell cycle analysis by flow cytometry; conditions: HepG2, 500 μM; for fraction of subG1 cells: DMSO control 0.9%
Protocol: Cell cycle analysis. HepG2 cells were seeded at density of 3×10^6 cells per flask in complete growth medium and were allowed to attach overnight. After which, cells were treated with 500 μM of safranal for different time intervals (6-48 hours). At the indicated time intervals, cells were collected by incubation with trypsin and washed twice with PBS. Collected cells were fixed in 70% ethanol, treated with RNase and stained with propidium iodide. Cell cycle distribution was analyzed by flow cytometry in a FACS scan (Becton Dickenson, Germany).

HepG2 cells [4] = assay: Western blotting of safranal-treated cells
Protocol: Western blotting. HepG2 cells were seeded at a density of 1×10^6 cells/100 mm plate and allowed to attach before being treated with safranal. Cells were treated with 500 μM of safranal for different time intervals (6-48 hours) for time-dependent experiments. Whole cell lysates were separated using 10-15% SDS polyacrylamide gel electrophoresis. Proteins were transferred onto PVDF membranes prior to incubation with various primary antibodies p-histone H3, Cdc2, Cyclin B1, CDC25B, p21, p53, H2AX, p-H2AX, TOP1, TDP1, Cleaved PARP1, PCNA, HDAC1, HDAC2, Cleaved Caspase-9, Cleaved Caspase-8, Bax, Bcl-2, GRP78, ATF6, IRE1, PERK, p-eIF2S1, […], and CHOP. GAPDH, β-actin, and α-Tubulin were used as loading controls. Protein bands were detected using WesternSure Chemiluminescent Substrate (LI-COR) and C-DiGit blot scanner (LI-COR).

SMILES: CC1=C(C=O)C(C)(C)CC=C1 [safranal]
- IC50 (HepG2 cells [1]): 500 µM
- colony formation (HepG2 cells [2]): inhibited colony formation of HepG2 cells in a dose-dependent manner
- cell cycle distribution (HepG2 cells [3]; 6 and 12 hours post treatment): G2/M phase arrest
- cell cycle distribution (HepG2 cells [3]; 24 hours): S-phase arrest
- fraction of subG1 cells (HepG2 cells [3]; after 24 hours): 6.3%
- fraction of subG1 cells (HepG2 cells [3]; after 48 hours): 26.2%
- HDAC1 expression (HepG2 cells [4]; HepG2, 500 μM): inhibited
- HDAC2 expression (HepG2 cells [4]; HepG2, 500 μM): remained unchanged
- Cdc2 expression (HepG2 cells [4]; HepG2, 500 μM, 6-48 hours): inhibit Cdc2 expression starting at 12 hours
- H2AX expression (HepG2 cells [4]; HepG2, 500 μM, 6-48 hours): remained unchanged
- expression of Cyclin B1 and CDC25B (HepG2 cells [4]; HepG2, 500 μM, 6-48 hours): inhibiting expression of Cyclin B1 and CDC25B starting at 6 hours
- expression of phosphorylated histone H3 (HepG2 cells [4]; HepG2, 500 μM, 6-48 hours): inhibited dramatically
- p-H2AX (DNA damage marker) (HepG2 cells [4]; HepG2, 500 μM, 6-48 hours): observed starting at 6 hours
- proliferation marker PCNA (HepG2 cells [4]; HepG2, 500 μM, 6-48 hours): inhibition
- CHOP/DDIT3 and phosphorylated eIF2α (HepG2 cells [4]; HepG2, 500 μM, up to 48 hours): upregulated
- expression of p21 (HepG2 cells [4]; HepG2, 500 μM, up to 48 hours): inhibited
- expressions of GRP78 and of p27 (HepG2 cells [4]; HepG2, 500 μM, up to 48 hours): induced
- main sensors of UPR, PERK, MEL and ATF6 (HepG2 cells [4]; HepG2, 500 μM, up to 48 hours): general upregulation trend
- TDP1 level (HepG2 cells [4]; HepG2, 6, 12, 24, 48 hours): lower levels
- TOP1 level (HepG2 cells [4]; HepG2, 6, 12, 24, 48 hours): higher levels
- caspase-8 cleavage (HepG2 cells [4]; HepG2, time-based): cleaved starting at 24 hours
- caspase-9 cleavage (HepG2 cells [4]; HepG2, time-based): cleaved starting at 12 hours
- ratio of Bax to Bcl-2 (HepG2 cells [4]; HepG2, time-based): increased
